From patent publication US10174021B2, “Substituted pyrazolo[1,5-A]pyridines and their use” (BAYER PHARMA AKTIENGESELLSCHAFT, priority 2014, dated 2019)
Counter-ions that a name gives are not always drawn.

System: recombinant guanylate cyclase reporter cell line
Test: Effect on a recombinant guanylate cyclase reporter cell line
Type: cell-based
Conditions: in some cases mean values from individual determinations, read-out: MEC (minimum effective concentration)
Protocol: B-2. Effect on a Recombinant Guanylate Cyclase Reporter Cell Line
The cellular activity of the compounds according to the invention is determined using a recombinant guanylate cyclase reporter cell line, as described in F. Wunder et al., Anal. Biochem. 339, 104-112 (2005).
Representative MEC values (MEC=minimum effective concentration) for the compounds of the invention are shown in the table below (in some cases as mean values from individual determinations): […]

Going from Cc1cc(OCc2c(F)cccc2F)n2nc(C)c(-c3cn[nH]c3)c2c1 [Example 1, 7-[(2,6-Difluorobenzyl)oxy]-2,5-dimethyl-3-(1H-pyrazol-4-yl)pyrazolo[1,5-a]pyridine] to Cc1cc(OCc2c(F)cccc2F)n2nc(C)c(-c3cnc(Cl)c(C)c3)c2c1 [Example 9, 3-(6-Chloro-5-methylpyridin-3-yl)-7-[(2,6-difluorobenzyl)oxy]-2,5-dimethylpyrazolo[1,5-a]pyridine], the minimal effective concentration rises from 0.03 µM to 3 µM (100-fold).

Going from CC(=O)c1cccc(-c2c(C)nn3c(OCc4c(F)cccc4F)cc(C)cc23)c1 [Example 2, 1-(3-{7-[(2,6-Difluorobenzyl)oxy]-2,5-dimethylpyrazolo[1,5-a]pyridin-3-yl}phenyl)ethanone] to Cc1cc(OCc2c(F)cccc2F)n2nc(C)c(-c3cccc(C(N)=O)c3)c2c1 [Example 12, 3-{7-[(2,6-Difluorobenzyl)oxy]-2,5-dimethylpyrazolo[1,5-a]pyridin-3-yl}benzamide], the minimal effective concentration falls from 0.53 µM to 0.055 µM (9.6-fold).

First: CC(=O)Nc1cccc(-c2c(C)nn3c(OCc4c(F)cccc4F)cc(C)cc23)c1 [Example 3, 1-(3-{7-[(2,6-Difluorobenzyl)oxy]-2,5-dimethylpyrazolo[1,5-a]pyridin-3-yl}phenyl)acetamide]
Second: Cc1cc(OCc2c(F)cccc2F)n2nc(C)c(-c3cccc(NS(C)(=O)=O)c3)c2c1 [Example 13, N-(3-{7-[(2,6-Difluorobenzyl)oxy]-2,5-dimethylpyrazolo[1,5-a]pyridin-3-yl}phenyl)methansulphonamide]
The minimal effective concentration of the first is 1.5-fold lower: 0.065 µM for the first, 0.1 µM for the second.

Cc1cc(OCc2c(F)cccc2F)n2nc(C)c(-c3csc(CN4CCOCC4)c3)c2c1 [Example 4, 7-[(2,6-Difluorobenzyl)oxy]-2,5-dimethyl-3-[5-(morpholin-4-ylmethyl)-3-thienyl]pyrazolo[1,5-a]pyridine] and Cc1cc(OCc2c(F)cccc2F)n2nc(C)c(-c3cnn(CCN4CCOCC4)c3)c2c1 [Example 5, 7-[(2,6-Difluorobenzyl)oxy]-2,5-dimethyl-3-{1-[2-(morpholin-4-yl)ethyl]-1H-pyrazol-4-yl}pyrazolo[1,5-a]pyridine] are the same in minimal effective concentration: 0.07 µM for the first, 0.07 µM for the second.

First: Cc1cc(OCc2c(F)cccc2F)n2nc(C)c(-c3cnn(Cc4ccccc4)c3)c2c1 [Example 6, 3-(1-Benzyl-1H-pyrazol-4-yl)-7-[(2,6-difluorobenzyl)oxy]-2,5-dimethylpyrazolo[1,5-a]pyridine]
Second: Cc1cc(OCc2c(F)cccc2F)n2nc(C)c(-c3cnn(CCO)c3)c2c1 [Example 24, 2-(4-{7-[(2,6-Difluorobenzyl)oxy]-2,5-dimethylpyrazolo[1,5-a]pyridin-3-yl}-1H-pyrazol-1-yl)ethanol trifluoroacetate]
The minimal effective concentration of the first is 1.5-fold higher: 0.1 µM for the first, 0.065 µM for the second.

CCS(=O)(=O)c1cccc(-c2c(C)nn3c(OCc4c(F)cccc4F)cc(C)cc23)c1 [Example 7, 7-[(2,6-Difluorobenzyl)oxy]-3-[3-(ethylsulphonyl)phenyl]-2,5-dimethylpyrazolo[1,5-a]pyridine] and CCN(C)Cc1cccc(-c2c(C)nn3c(OCc4c(F)cccc4F)cc(C)cc23)c1 [Example 10, N-(3-{7-[(2,6-Difluorobenzyl)oxy]-2,5-dimethylpyrazolo[1,5-a]pyridin-3-yl}benzyl)-N-methylethanamine] are the same in minimal effective concentration: 0.065 µM for the first, 0.065 µM for the second.

Going from Cc1cc(OCc2c(F)cccc2F)n2nc(C)c(-c3cnn(-c4ccc(F)cc4)c3)c2c1 [Example 8, 7-[(2,6-Difluorobenzyl)oxy]-3-[1-(4-fluorophenyl)-1H-pyrazol-4-yl]-2,5-dimethylpyrazolo[1,5-a]pyridine] to Cc1cc(OCc2c(F)cccc2F)n2nc(C)c(-c3cnn(CC(C)(C)N)c3)c2c1 [Example 16, 1-(4-{7-[(2,6-Difluorobenzyl)oxy]-2,5-dimethylpyrazolo[1,5-a]pyridin-3-yl}-1H-pyrazol-1-yl)-2-methylpropane-2-amine], the minimal effective concentration falls from 1 µM to 0.1 µM (10-fold).

Going from Cc1cc(OCc2c(F)cccc2F)n2nc(C)c(-c3cccc(CN4CCCC4)c3)c2c1 [Example 11, 7-[(2,6-Difluorobenzyl)oxy]-2,5-dimethyl-3-[3-(pyrrolidin-1-ylmethyl)phenyl]pyrazolo[1,5-a]pyridine] to Cc1cc(OCc2c(F)cccc2F)n2nc(C)c(-c3cccc(N4CCCC4)c3)c2c1 [Example 14, 7-[(2,6-Difluorobenzyl)oxy]-2,5-dimethyl-3-[3-(pyrrolidin-1-yl)phenyl]pyrazolo[1,5-a]pyridine], the minimal effective concentration rises from 0.03 µM to 2 µM (67-fold).

Going from Cc1cc(OCc2c(F)cccc2F)n2nc(C)c(-c3ccnc(N4CCNCC4)c3)c2c1 [Example 15, 7-[(2,6-Difluorobenzyl)oxy]-2,5-dimethyl-3-[2-(piperazin-1-yl)pyridin-4-yl]pyrazolo[1,5-a]pyridine] to Cc1cc(OCc2c(F)cccc2F)n2nc(C)c(-c3cc(F)ncc3F)c2c1 [Example 17, 7-[(2,6-Difluorobenzyl)oxy]-3-(2,5-difluoropyridin-4-yl)-2,5-dimethylpyrazolo[1,5-a]pyridine], the minimal effective concentration rises from 0.3 µM to 2 µM (6.7-fold).

Compared with CCOC(=O)c1cncc(-c2c(C)nn3c(OCc4c(F)cccc4F)cc(C)cc23)c1 [Example 18, Ethyl 5-{7-[(2,6-difluorobenzyl)oxy]-2,5-dimethylpyrazolo[1,5-a]pyridin-3-yl}nicotinate], COC(=O)CCn1cc(-c2c(C)nn3c(OCc4c(F)cccc4F)cc(C)cc23)cn1 [Example 21, Methyl 3-(4-{7-[(2,6-difluorobenzyl)oxy]-2,5-dimethylpyrazolo[1,5-a]pyridin-3-yl}-1H-pyrazol-1-yl)propanoate trifluoroacetate] is 330-fold lower in minimal effective concentration: 10 µM for the first, 0.03 µM for the second.

First: Cc1cn2c(-c3cn[nH]c3)c(C)nc2c(OCc2c(F)cccc2F)n1 [Example 19, 8-[(2,6-Difluorobenzyl)oxy]-2,6-dimethyl-3-(1H-pyrazol-4-yl)imidazo[1,2-a]pyrazine trifluoroacetate]
Second: Cc1cn2c(-c3nc(N)nc(N)n3)c(C)nc2c(OCc2c(F)cccc2F)n1 [Example 20, 6-{8-[(2,6-Difluorobenzyl)oxy]-2,6-dimethylimidazo[1,2-a]pyrazin-3-yl}-1,3,5-triazine-2,4-diamine trifluoroacetate]
The minimal effective concentration of the first is 6.7-fold lower: 0.3 µM for the first, 2 µM for the second.

First: Cc1cc(OCc2c(F)cccc2F)n2nc(C)c(-c3cnn(CCC(=O)O)c3)c2c1 [Example 22, 3-(4-{7-[(2,6-Difluorobenzyl)oxy]-2,5-dimethylpyrazolo[1,5-a]pyridin-3-yl}-1H-pyrazol-1-yl)propanoic acid trifluoroacetate]
Second: Cc1cc(OCc2c(F)cccc2F)n2nc(C)c(-c3cnn(CCC(=O)NC4CC4)c3)c2c1 [Example 23, N-Cyclopropyl-3-(4-{7-[(2,6-difluorobenzyl)oxy]-2,5-dimethylpyrazolo[1,5-a]pyridin-3-yl}-1H-pyrazol-1-yl)propanamide]
The minimal effective concentration of the first is 3.3-fold higher: 0.1 µM for the first, 0.03 µM for the second.

Cc1cc(OCc2c(F)cccc2F)n2nc(C)c(-c3cnn(CCc4c(C)n[nH]c4C)c3)c2c1 [Example 25, 7-[(2,6-Difluorobenzyl)oxy]-3-{1-[2-(3,5-dimethyl-1H-pyrazol-4-yl)ethyl]-1H-pyrazol-4-yl}-2,5-dimethylpyrazolo[1,5-a]pyridine] showed a minimal effective concentration of 0.065 µM.
